Target: T1, hGPR120 (Homo sapiens, UniProt Q5NUL3)
T1 construct: expressed in transfected cells; host or cells: CHO-K1
T1 sequence (Q5NUL3 1-361): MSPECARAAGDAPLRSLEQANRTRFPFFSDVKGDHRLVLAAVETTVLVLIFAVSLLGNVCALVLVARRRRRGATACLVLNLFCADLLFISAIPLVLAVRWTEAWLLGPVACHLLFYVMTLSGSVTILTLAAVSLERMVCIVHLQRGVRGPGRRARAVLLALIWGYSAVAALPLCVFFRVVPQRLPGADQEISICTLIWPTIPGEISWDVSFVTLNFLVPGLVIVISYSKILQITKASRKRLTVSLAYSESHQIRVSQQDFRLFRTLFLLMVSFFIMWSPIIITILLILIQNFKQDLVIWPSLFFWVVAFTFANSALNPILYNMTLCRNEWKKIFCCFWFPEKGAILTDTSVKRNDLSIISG
Assay: Measurement of activity of GPR120 agonist (cell-based calcium fluorescence assay)
Settings: CHO-K1 cells expressing Ga16 and hGPR120, Calcium 5 dye fluorescence; activity class; read-out: EC50
Method in brief: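 CHO-K1 cells co-expressing Gα16 and hGPR120, plated 18 h, loaded with Calcium 5 dye for 1 h at 37 °C, then given serially diluted agonists (final 0.5% DMSO). Fluorescence increase expressed as relative % of the 1% DMSO-only signal.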

EC50	SMILES
200 to 2000 nM	Cc1ccc(OC2CCCC2)c(-c2ccc(SCCCC(=O)O)c(F)c2)c1F [Example 193, 4-(6′-cyclopentyloxy-3,2′-difluoro-3′-methyl-biphenyl-4-ylsulfanyl)-butyric acid]
< 200 nM	CC(C)Oc1cccc(-c2cc(F)c(OCCCCC(=O)O)c(F)c2)n1 [Example 238, 5-[2,6-difluoro-4-(6-isopropoxy-2-pyridyl)phenoxy]pentanoic acid]
< 200 nM	CCCOc1c(F)cc(C)cc1-c1ccc(SCCCC(=O)O)c(F)c1 [Example 191, 4-(3,3′-difluoro-5′-methyl-2′-propoxy-biphenyl-4-ylsulfanyl)-butyric acid]
< 200 nM	O=C(O)CCCOc1c(F)cc(-c2cccc(SC3CCCC3)n2)cc1F [Example 6, 4-[4-(6-cyclopentylsulfanyl-2-pyridyl)-2,6-difluoro-phenoxy]butyric acid]
< 200 nM	O=C(O)CCCOc1c(F)cc(-c2cccc(N3CCCC3)c2)cc1F [Example 92, 4-[2,6-difluoro-4-(3-pyrrolidin-1-ylphenyl)phenoxy]butanoic acid]
< 200 nM	Cc1cnc(OC2CCCC2)c(-c2cc(F)c(SCCCC(=O)O)c(F)c2)c1 [Example 198, 4-[4-(2-cyclopentyloxy-5-methyl-pyridin-3-yl)-2,6-difluoro-phenylsulfanyl]-butyri c acid]
200 to 2000 nM	CCC(C)Sc1ncccc1-c1cc(F)c(OCCCC(=O)O)c(F)c1 (stereo not shown) [Example 13, 4-[4-(2-sec-butylsulfanyl-pyridin-3-yl)-2,6-difluoro-phenoxy]-butyric acid]
200 to 2000 nM	O=C(O)CCCSc1ccc(-c2cccc(OC3CCCC3)n2)cc1 [Example 129, 4-[4-(6-cyclopentyloxy-pyridin-2-yl)-phenylsulfanyl]-butyric acid]
< 200 nM	O=C(O)CCCSc1c(F)cc(-c2ccccc2NC2CCCC2)cc1F [Example 161, 4-(2′-cyclopentylamino-3,5-difluoro-biphenyl-4-ylsulfanyl)-butyric acid]
200 to 2000 nM	CC(C)Nc1cccc(-c2cc(F)c(OCCCC(=O)O)c(F)c2)n1 [Example 78, 4-[2,6-difluoro-4-[6-(isopropylamino)-2-pyridyl]phenoxy]butanoic acid]
< 200 nM	O=C(O)CCCCCOc1c(F)cc(-c2cccnc2OCC2CCC2)cc1F [Example 272, 6-[4-[2-(cyclobutylmethoxy)-3-pyridyl]-2,6-difluoro-phenoxy]hexanoic acid]
< 200 nM	CCCOc1cccc(-c2cc(F)c(SCCCC(=O)O)c(F)c2)n1 [Example 136, 4-[2,6-difluoro-4-(6-propoxy-pyridin-2-yl)-phenylsulfanyl]-butyric acid]
< 200 nM	O=C(O)CCCCCOc1c(F)cc(-c2cccnc2OC2CCCC2)cc1F [Example 262, 6-[4-(2-cyclopentyloxy-pyridin-3-yl)-2,6-difluoro-phenoxy]-hexanoic acid]
200 to 2000 nM	Cc1cnc(OC2CCCC2)c(-c2ccc(SCCCC(=O)O)cc2)c1 [Example 181, 4-[4-(2-cyclopentyloxy-5-methyl-pyridin-3-yl)-phenylsulfanyl]-butyric acid]
< 200 nM	CC(C)Oc1cccc(-c2ccc(SCCCC(=O)O)cc2)n1 [Example 130, 4-[4-(6-isopropoxy-pyridin-2-yl)-phenylsulfanyl]-butyric acid]
< 200 nM	O=C(O)CCCOc1c(F)cc(-c2ccccc2CC2CCC2)cc1F [Example 101, 4-[4-[2-(cyclobutylmethyl)phenyl]-2,6-difluoro-phenoxy]butanoic acid]
< 200 nM	O=C(O)CCCSc1ccc(-c2cccnc2OCC2CCC2)cc1F [Example 246, 4-[4-(2-cyclobutylmethoxy-pyridin-3-yl)-2-fluoro-phenylsulfanyl]-butyric acid]
200 to 2000 nM	CC(C)Sc1ncccc1-c1ccc(OCCCC(=O)O)cc1 [Example 38, 4-[4-(2-isopropylsulfanyl-pyridin-3-yl)-phenoxy]-butyric acid]
200 to 2000 nM	O=C(O)CCCOc1c(F)cc(-c2cccnc2NCC2CC2)cc1F [Example 74, 4-[4-[2-(cyclopropylmethylamino)-3-pyridyl]-2,6-difluoro-phenoxy]butanoic acid]
2000 to 20000 nM	CCCOc1ccc(-c2ccc(SCCCC(=O)O)c(F)c2)c(OCCC)c1 [Example 192, 4-(3-fluoro-2′,4′-dipropoxy-biphenyl-4-ylsulfanyl)-butyric acid]
< 200 nM	O=C(O)CCCOc1c(F)cc(-c2ccccc2OC2CCCC2)cc1F [Example 55, 4-(2′-cyclopentyloxy-3,5-difluoro-biphenyl-4-yloxy)-butyric acid]
< 200 nM	O=C(O)CCCOc1c(F)cc(-c2cccc(Oc3ccccc3)n2)cc1F [Example 3, 4-[2,6-difluoro-4-(6-phenoxy-2-pyridyl)phenoxy]butyric acid]
< 200 nM	O=C(O)CCCSc1c(F)cc(-c2ccccc2NCC2CC2)cc1F [Example 162, 4-[2′-(cyclopropylmethyl-amino)-3,5-difluoro-biphenyl-4-ylsulfanyl]-butyric acid]
< 200 nM	O=C(O)CCCCCOc1c(F)cc(-c2cccnc2SC2CCC2)cc1F [Example 274, 6-[4-(2-cyclobutylsulfanyl-3-pyridyl)-2,6-difluoro-phenoxy]hexanoic acid]
< 200 nM	Cc1cnc(OC2CCCC2)c(-c2cc(F)c(OCCCC(=O)O)c(F)c2)c1 [Example 209, 4-[4-(2-cyclopentyloxy-5-methyl-pyridin-3-yl)-2,6-difluoro-phenoxy]-butyric acid]
< 200 nM	O=C(O)CCCSc1c(F)cc(-c2cccc(OC3CCCC3)c2)cc1F [Example 122, 4-(3′-cyclopentyloxy-3,5-difluoro-biphenyl-4-ylsulfanyl)-butyric acid]
< 200 nM	O=C(O)CCCOc1c(F)cc(-c2cccc(CC3CCC3)c2)cc1F [Example 102, 4-[4-[3-(cyclobutylmethyl)phenyl]-2,6-difluoro-phenoxy]butanoic acid]
< 200 nM	CC(C)Nc1ccccc1-c1cc(F)c(SCCCC(=O)O)c(F)c1 [Example 165, 4-(3,5-difluoro-2′-isopropylamino-biphenyl-4-ylsulfanyl)-butyric acid]
< 200 nM	CC(C)Oc1cccc(-c2cc(F)c(SCC3(CC(=O)O)CC3)c(F)c2)c1 [Example 121, [1-(3,5-difluoro-3′-isopropoxy-biphenyl-4-ylsulfanylmethyl)-cyclopropyl]-acetic acid]
> 20000 nM	Cc1cnn(-c2ncccc2-c2cc(F)c(OCCCC(=O)O)c(F)c2)c1 [Example 110, 4-[2,6-difluoro-4-[2-(4-methylpyrazol-1-yl)-3-pyridyl]phenoxy]butanoic acid]

SMILES	EC50
O=C(O)CCCOc1ccc(-c2cccc(OC3CCC3)n2)cc1C(F)(F)F [Example 27, 4-[4-[6-(cyclobutoxy)-2-pyridyl]-2-(trifluoromethyl)phenoxy]butyric acid]	< 200 nM
CC(C)COc1ncccc1-c1cc(F)c(OCCCC(=O)O)c(F)c1 [Example 230, 4-[2,6-difluoro-4-(2-isobutoxy-pyridin-3-yl)-phenoxy]-butyric acid]	< 200 nM
O=C(O)CCCSc1c(F)cc(-c2cccc(OC3CCC3)c2)cc1F [Example 134, 4-(3′-cyclobutoxy-3,5-difluoro-biphenyl-4-ylsulfanyl)-butyric acid]	< 200 nM
O=C(O)CCCOc1ccc(-c2cccc(OC3CCC3)c2)nc1 [Example 35, 4-[[6-[3-(cyclobutoxy)phenyl]-3-pyridyl]oxy]butyric acid]	200 to 2000 nM

Reference: US10221138B2, “Biaryl derivatives as GPR120 agonists” (LG CHEM, LTD., priority 2013, dated 2019)
